Laboratory results reported in publication PMC10957897, “An evolutionary mechanism to assimilate new nutrient sensors into the mTORC1 pathway” (Nature Communications, 2024).
Positions count from the first letter of the chain named.

Experiments:
[1] = molecular target: T1, Unmet expectations (Unmet; CG11596) (Drosophila melanogaster, UniProt Q9I7X6, E30A); assay: [3H]SAM binding to purified protein on anti-FLAG beads; settings: 5 μM [3H]SAM with or without unlabeled SAM, pH 7.4, on ice; labelled compound
T1 construct: FLAG-tagged, tag kept; pRK5 vector, expressed in suspension HEK-293T cells
T1 sequence (Q9I7X6 1-456 E30A): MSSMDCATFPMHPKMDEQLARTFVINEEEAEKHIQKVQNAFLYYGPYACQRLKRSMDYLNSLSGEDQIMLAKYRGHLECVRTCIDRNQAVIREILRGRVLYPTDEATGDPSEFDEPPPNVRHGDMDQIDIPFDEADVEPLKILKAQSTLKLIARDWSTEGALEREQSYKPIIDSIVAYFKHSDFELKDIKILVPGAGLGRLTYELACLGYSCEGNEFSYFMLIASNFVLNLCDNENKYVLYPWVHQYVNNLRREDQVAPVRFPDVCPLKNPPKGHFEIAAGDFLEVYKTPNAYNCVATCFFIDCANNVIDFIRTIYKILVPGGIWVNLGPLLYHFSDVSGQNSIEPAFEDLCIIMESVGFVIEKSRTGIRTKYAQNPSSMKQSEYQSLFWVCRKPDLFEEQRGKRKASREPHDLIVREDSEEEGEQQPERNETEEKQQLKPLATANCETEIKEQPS

[2] = molecular target: T2, Unmet expectations (Unmet; CG11596) (Drosophila melanogaster, UniProt Q9I7X6); assay: competition with [3H]SAM binding to purified protein on anti-FLAG beads; settings: 5 μM [3H]SAM, pH 7.4, on ice
T2 construct: FLAG-tagged, tag kept; pRK5 vector, expressed in suspension HEK-293T cells
T2 sequence (Q9I7X6 1-456): T1 sequence (Q9I7X6 1-456 E30A) with A30E

Row | SMILES | SAM-binding capacity [1] | competition with [3H]SAM binding to purified protein on anti-FLAG beads [2]
1 | C[S+](CC[C@H](N)C(=O)O)C[C@H]1O[C@@H](n2cnc3c(N)ncnc32)[C@H](O)[C@@H]1O (stereo partly drawn) [SAM] | The E30A mutant of Unmet does not interact with dGATOR2 but maintains its SAM-binding capacity | 
2 | Nc1ncnc2c1ncn2[C@@H]1O[C@H](CSCC[C@H](N)C(=O)O)[C@@H](O)[C@H]1O [SAH] |  | it readily competes with labeled SAM for binding to Unmet
3 | Nc1ncnc2c1ncn2[C@@H]1O[C@H](C[C@@H](N)CC[C@H](N)C(=O)O)[C@@H](O)[C@H]1O [sinefungin] |  | also competes with labeled SAM for binding to Unmet
